Measurements as given in publication PMC7044277 (Nature Communications, 2020).
Several values for one entry are separate records, joined by “and”; a condition that tells them apart may be missing. Identical values can stand only once.

What was measured:
DRD4 (D4.4 variant) [1] = target: T1, DRD4 (D4.4 variant) (Homo sapiens, UniProt P21917); assay: β-arrestin2 recruitment (Tango); assay type: cell-based; details: DRD4; Tango; read-out: EC50 ± SEM
T1 sequence (P21917 1-419): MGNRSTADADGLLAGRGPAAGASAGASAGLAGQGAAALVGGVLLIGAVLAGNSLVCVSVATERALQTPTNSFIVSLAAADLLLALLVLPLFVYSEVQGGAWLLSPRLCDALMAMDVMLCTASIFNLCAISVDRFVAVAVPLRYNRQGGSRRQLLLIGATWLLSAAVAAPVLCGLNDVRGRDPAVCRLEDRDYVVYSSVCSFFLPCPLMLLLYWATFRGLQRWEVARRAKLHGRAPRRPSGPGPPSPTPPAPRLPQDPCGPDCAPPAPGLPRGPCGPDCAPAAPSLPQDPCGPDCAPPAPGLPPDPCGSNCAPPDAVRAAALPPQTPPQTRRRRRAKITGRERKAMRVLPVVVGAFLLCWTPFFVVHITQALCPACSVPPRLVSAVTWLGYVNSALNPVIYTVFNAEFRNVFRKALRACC

[2] = target: DRD2 (D2 long receptor) wild-type (Homo sapiens, UniProt P14416); assay: Radioligand competition binding, [3H]-N-methylspiperone, HEK293T membranes; details: for Ki: DRD2, [3H]-methylspiperone (0.8-1.0 nM), read-out: Ki
Chain of DRD2 (D2 long receptor) wild-type (P14416 whole entry): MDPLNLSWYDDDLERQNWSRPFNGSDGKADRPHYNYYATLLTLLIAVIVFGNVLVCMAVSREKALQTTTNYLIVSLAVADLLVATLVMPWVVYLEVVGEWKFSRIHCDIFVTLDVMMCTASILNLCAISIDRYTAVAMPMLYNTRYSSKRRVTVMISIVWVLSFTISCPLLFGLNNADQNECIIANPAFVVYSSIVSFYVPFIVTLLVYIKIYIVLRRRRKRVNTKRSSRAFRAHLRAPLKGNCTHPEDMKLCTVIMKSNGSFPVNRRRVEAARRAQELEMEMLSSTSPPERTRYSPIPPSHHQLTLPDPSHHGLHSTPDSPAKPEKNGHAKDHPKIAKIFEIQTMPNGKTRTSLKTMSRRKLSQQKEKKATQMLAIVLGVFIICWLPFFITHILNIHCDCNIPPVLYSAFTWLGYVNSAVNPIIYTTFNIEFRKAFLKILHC

DRD3 = DRD3 (Homo sapiens, UniProt P35462); assay: β-arrestin2 recruitment (Tango); assay type: cell-based; details: DRD3, Tango; for EC50: read-out: EC50 ± SEM
Chain of DRD3 (P35462 whole entry): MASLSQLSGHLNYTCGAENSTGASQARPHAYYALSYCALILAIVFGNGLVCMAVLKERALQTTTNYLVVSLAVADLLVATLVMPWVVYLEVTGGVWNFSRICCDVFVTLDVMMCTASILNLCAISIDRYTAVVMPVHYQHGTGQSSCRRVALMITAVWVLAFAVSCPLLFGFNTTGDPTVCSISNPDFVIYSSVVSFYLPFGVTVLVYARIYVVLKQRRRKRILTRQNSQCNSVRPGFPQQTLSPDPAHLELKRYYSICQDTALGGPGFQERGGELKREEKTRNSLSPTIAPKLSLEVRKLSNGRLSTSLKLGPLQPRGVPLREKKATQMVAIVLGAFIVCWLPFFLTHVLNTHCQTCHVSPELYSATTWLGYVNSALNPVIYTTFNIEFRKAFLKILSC

DRD4 (D4.4 variant) [3] = target: T1, DRD4 (D4.4 variant); assay: Gαi/o-mediated cAMP inhibition (GloSensor); assay type: cell-based; details: DRD4; agonist, cAMP inhibition; read-out: EC50 ± SEM
DRD3 wild-type = DRD3 wild-type (Homo sapiens, UniProt P35462); assay: Radioligand competition binding, [3H]-N-methylspiperone; details: for Ki: DRD3, [3H]-methylspiperone (0.8-1.0 nM), read-out: Ki; for pKi ± SEM: DRD3 wild-type
Chain of DRD3 wild-type (P35462 whole entry): as above

DRD2 F1103.28A = DRD2 F1103.28A (Homo sapiens, UniProt P14416, F110A); assay type: binding; set-up: expressed in transfected cells; host or cells: HEK293T (ATCC CRL-11268); details: DRD2 F1103.28A; for Ki: read-out: Ki
Chain of DRD2 F1103.28A (P14416 whole entry F110A): as the sequence (P14416 whole entry) above, with F110A counted along it

[4] = target: T2, DRD4 (D4.4 variant) wild-type (Homo sapiens, UniProt P21917); assay: Radioligand competition binding, [3H]-N-methylspiperone; details: DRD4; [3H]-methylspiperone (0.8-1.0 nM); read-out: Ki
T2 sequence (P21917 1-419): T1 sequence (P21917 1-419)

DRD2 (D2 long receptor) [5] = target: T3, DRD2 (D2 long receptor) (Homo sapiens, UniProt P14416); assay: β-arrestin2 recruitment (Tango), HTLA cells; assay type: cell-based; details: for Emax relative to quinpirole response / EC50: DRD2; for Emax relative to quinpirole response: Tango; for EC50: β-arrestin2 recruitment (Tango), read-out: EC50 ± SEM; for Response, Fig_S11c dose-response: individual replicates
T3 sequence (P14416 whole entry): as the sequence (P14416 whole entry) above

DRD2 (D2 long receptor) [6] = target: T3, DRD2 (D2 long receptor); assay: Gαi/o-mediated cAMP inhibition (GloSensor split-luciferase cAMP reporter), HEK293T; assay type: cell-based; details: for EC50: agonist, Gαi/o-mediated cAMP inhibition, read-out: EC50 ± SEM; for Response, Fig_S11b dose-response: individual replicates;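 on all read-outs here: compounds applied 15 min at room temperature, then luciferin plus 400 nM isoproterenol to raise cAMP through endogenous β2-adrenergic receptors, luminescence read 15 min later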

COc1cccc2cc(C(C)NCC3(O)CCCCC3)oc12.Cl (centres unmarked) [O3LE6]
EC50 (DRD4 (D4.4 variant) [1]): > 10 µM
Ki [2]: 4.78 µM
pKi ± SEM ([2]; DRD2 wild-type): 5.32±0.22
Emax relative to quinpirole response (DRD3): 80.01%
EC50 (DRD3): 5.48 ± 3.94 µM
EC50 (DRD4 (D4.4 variant) [3]): > 10 µM
Ki (DRD3 wild-type): 1.07 µM
pKi ± SEM (DRD3 wild-type): 5.97±0.13
pKi ± SEM (DRD2 F1103.28A): 5.49±0.16
Ki (DRD2 F1103.28A): 3.24 µM
Ki [4]: > 10 µM
Emax relative to quinpirole response (DRD2 (D2 long receptor) [5]): 109.80%
EC50 (DRD2 (D2 long receptor) [5]): 0.166 ± 0.0764 µM
response, Fig_S11c dose-response source data (DRD2 (D2 long receptor) [5]; Fig_S11c, Log[Drug] -5, replicate values): 121.198 and 127.001 and 100.932 and 110.321 and 113.709 and 113.34 and 97.1155
Response, Fig_S11c dose-response (DRD2 (D2 long receptor) [5]; Log[Drug] -6.52): 92.1418 and 88.9307
Response, Fig_S11c dose-response (DRD2 (D2 long receptor) [5]; Log[Drug] -7): 77.394 and 77.7575 and 68.5542 and 65.6395 and 57.0787 and 60.1228 and 51.2599 and 46.3298
Response, Fig_S11c dose-response (DRD2 (D2 long receptor) [5]; Log[Drug] -7.52): 38.329 and 41.6231 and 33.61 and 32.4962 and 32.299 and 34.1126 and 16.8232 and 31.0553 and 35.575
Response, Fig_S11c dose-response (DRD2 (D2 long receptor) [5]; Log[Drug] -8): 11.9901 and 12.2692 and 10.2755 and 10.8849 and 10.4485 and 8.443 and 10.7171 and 9.707 and 5.469
Response, Fig_S11c dose-response (DRD2 (D2 long receptor) [5]; Log[Drug] -8.52): 3.649 and 3.804 and 4.186 and 3.535 and 4.03 and 2.927 and 1.899 and 5.413 and 2.845
Response, Fig_S11c dose-response (DRD2 (D2 long receptor) [5]; Log[Drug] -9): 2.6531 and 2.675 and 3.049 and 2.914 and 2.704 and 2.807 and 3.034 (2×) and 2.494
Response, Fig_S11c dose-response (DRD2 (D2 long receptor) [5]; Log[Drug] -9.52): 2.467 and 2.869 and 2.678 and 2.37 and 2.33 and 2.2184 and 1.931 and 2.13 and 2.319
Response, Fig_S11c dose-response (DRD2 (D2 long receptor) [5]; Log[Drug] -10): 2.843 and 2.654 and 2.976 and 2.168 and 2.347 and 2.222 and 3.804 and 1.194 and 2.499
Response, Fig_S11c dose-response (DRD2 (D2 long receptor) [5]; Log[Drug] -10.52): 2.259 and 2.282 and 2.549 and 2.128 and 2.141 (2×) and 0.6309 and 3.246 and 2.4849
Response, Fig_S11c dose-response (DRD2 (D2 long receptor) [5]; Log[Drug] -11): 2.232 and 3.428 and 2.336 and 2.237 and 2.197 and 2.087 and 5.0906 and 1.927 and 3.601
Response, Fig_S11c dose-response (DRD2 (D2 long receptor) [5]; Log[Drug] -11.52): 2.2032 and 3.321 and 2.444 and 2.452 and 2.181 and 2.306 and 0.82 and 1.028 and 2.688
Response, Fig_S11c dose-response (DRD2 (D2 long receptor) [5]; Log[Drug] -12): 2.5295 and 2.339 and 2.21 and 2.47 and 2.197 and 2.157 and 4.362 and 2.319 and 1.955
EC50 (DRD2 (D2 long receptor) [6]; DRD2): 0.00538 ± 0.00115 µM
Emax relative to quinpirole response (DRD2 (D2 long receptor) [6]; DRD2, cAMP inhibition): 91.62%
Response, Fig_S11b dose-response (DRD2 (D2 long receptor) [6]; Log[Drug] -5): 91.2746 and 93.268 and 92.0221 and 94.9982 and 95.9757 and 91.0458 and 94.8288 and 96.7238 and 94.4943
Response, Fig_S11b dose-response (DRD2 (D2 long receptor) [6]; Log[Drug] -5.52): 84.7131 and 82.1661 and 88.7829 and 90.1533 and 94.7432 and 84.076 and 96.9467 and 103.412 and 92.2649
Response, Fig_S11b dose-response (DRD2 (D2 long receptor) [6]; Log[Drug] -6): 91.1916 and 89.8903 and 94.4031 and 97.8031 and 85.4785 and 88.6659 and 101.461 and 101.183 and 85.6322
Response, Fig_S11b dose-response (DRD2 (D2 long receptor) [6]; Log[Drug] -6.52): 79.2314 and 90.7486 and 80.9756 and 96.6556 and 102.308 and 66.8216 and 90.3141 and 94.5501 and 81.1733
Response, Fig_S11b dose-response (DRD2 (D2 long receptor) [6]; Log[Drug] -7): 93.1296 and 79.0099 and 76.7951 and 89.8559 and 81.4411 and 87.5184 and 97.0582 and 96.7796 and 87.8617
Response, Fig_S11b dose-response (DRD2 (D2 long receptor) [6]; Log[Drug] -7.52): 73.6389 and 59.4361 and 66.496 and 84.9685 and 73.1539 and 73.1114 and 79.2783 and 81.1733 and 101.35
Response, Fig_S11b dose-response (DRD2 (D2 long receptor) [6]; Log[Drug] -8): 62.703 and 59.1593 and 45.4826 and 64.1867 and 54.9645 and 52.4996 and 72.7571 and 85.8552 and 67.9638
Response, Fig_S11b dose-response (DRD2 (D2 long receptor) [6]; Log[Drug] -8.52): 23.5556 and 18.5998 and 3.594 and 27.9779 and 38.8575 and 46.6347 and 39.4267 and 57.0952 and 34.8006
Response, Fig_S11b dose-response (DRD2 (D2 long receptor) [6]; Log[Drug] -9): 24.2477 and 23.1957 and 12.4536 and 22.6655 and 22.9205 and 23.0055 and 26.2172 and 30.5646 and 12.7847
Response, Fig_S11b dose-response (DRD2 (D2 long receptor) [6]; Log[Drug] -10.52): -0.1987 and -7.8123
Response, Fig_S11b dose-response (DRD2 (D2 long receptor) [6]; Log[Drug] -11): 6.197 and 12.6784 and -7.6785 and 0.5663
Response, Fig_S11b dose-response (DRD2 (D2 long receptor) [6]; Log[Drug] -11.52): -9.1412 and 3.4 and -7.0575 and 6.319
Response, Fig_S11b dose-response (DRD2 (D2 long receptor) [6]; Log[Drug] -12): -5.1267 and 0.6872 and -14.1523 and 6.559 and 2.691 and 2.479 and -11.9066 and 21.591 and -2.8216

CCOc1cccc2cc(C(C)NCc3ccccc3)oc12.Cl (centres unmarked) [O4LE9]
EC50 (DRD4 (D4.4 variant) [1]): > 10 µM
Ki [2]: > 10 µM
EC50 (DRD3): > 10 µM
EC50 (DRD4 (D4.4 variant) [3]): > 10 µM
Ki (DRD3 wild-type): 5.88 µM
pKi ± SEM (DRD3 wild-type): 5.23±0.25
pKi ± SEM (DRD2 F1103.28A): 5.28±0.02
Ki (DRD2 F1103.28A): 5.25 µM
Ki [4]: > 10 µM
Emax relative to quinpirole response (DRD2 (D2 long receptor) [5]): 19.73%
EC50 (DRD2 (D2 long receptor) [5]): 5.37 ± 0.964 µM
EC50 (DRD2 (D2 long receptor) [6]; DRD2): > 10 µM
